Peptide text beside a SMILES is read from it. * marks the point of attachment. Cbz = O=C(OCc1ccccc1)*
Tests used:
Assay type in all cases: cell-based, human
IRE1/XBP1s = experiment: XBP1 endoplasmic reticulum stress reporter assay (CMV-XBP-GLuc); conditions: Figure S5; for Mean 2 (mean of log2-transformed values, treatment; DMSO = 0): N = 3; for Mean diff, DMSO vs. treatment (log2-transformed values): Dunnett's multiple comparisons test
Excerpt: Next, we investigated whether the selected RUN compounds activate the NFE2L1 transcriptional program without triggering the unfolded protein response (UPR), a crucial cellular process induced by the accumulation of unfolded proteins in the endoplasmic reticulum (ER), potentially leading to ER stress. To monitor this, an alternative reporter was used to assess the activation of IRE1/XBP1s.[47] IRE1 is a bifunctional serine/threonine kinase and endoribonuclease embedded in the ER membrane, playing a central role in UPR signaling. Its RNase activity facilitates the splicing of X-box binding protein 1 (XBP1) mRNA. The spliced XBP1 acts as a transcription factor, promoting the re-establishment of ER homeostasis by upregulating genes involved in the ER-associated degradation (ERAD) pathway.[48–50] The reporter contains Gaussia luciferase positioned out of frame downstream of the XBP1 splice site, ensuring that active luciferase translation occurs only in the presence of ER stress.[51,52] Cells transfected with this reporter were treated with RUN compounds at 1, 5, and 10 μM, and luciferase activity was measured.
Figure S5: Impact of RUN compounds on ER stress-induced activation of the XBP1 reporter.
HEK293 cells were transfected with the CMV-XBP-GLuc reporter plasmid and allowed to stabilize overnight. Following stabilization, the cells were treated with MG132 or various concentrations of the test compounds (1, 2, 3, 5, 7.5, and 10 µM) for 16 hours. The Gaussia luciferase signal, which reflects XBP1 mRNA splicing, was adjusted based on cell viability as measured by the alamarBlue assay. Data are represented as Geomean ± GeoSD of three independent experiments ( n = 3. Statistical comparison of MG132 and RUN compounds vs DMSO and RUN compounds vs MG132 was performed on log2-transformed values using two-way repeated-measures ANOVA with Geisser –Greenhouse correction, followed by Dunnett’s multiple comparisons test with individual variances computed for each comparison. Results of the analysis are shown in Supplementary Table S15. […]
GraphPad Prism (v 10.6.1).
2.8 XBP1-endoplasmic reticulum (ER) stress reporter assay
HEK293 cells were seeded in 6-well plates and incubated for 24 hours before being transfected with a plasmid containing the CMV-XBP-Gluc reporter using Lipofectamine 2000.(4) After 6 hours, the transfected cells were subsequently transferred to 384-well plates, stabilized overnight, and treated with the proteasome inhibitor and ER stress inducer MG132 and/or various concentrations of RUN compounds (1, 5, and 10 µM) or vehicle (DMSO) for 16 hours. Luciferase activity was normalized to cell viability, which was assessed using the alamarBlue assay. The results are expressed as the fold change compared with the DMSO control, with the experiment conducted in biological triplicate. […]

NFE2L1 pathway = experiment: 3×PSMA4-ARE-LUC dual luciferase reporter assay in HEK293 cells; conditions: Homo sapiens; 5 μM, 16 h, HEK293, luminescence relative to DMSO-treated cells; read-out: NFE2L1 activation [5 μM]
Excerpt: In our previous work,[43] we developed a library of NFE2L1 stimulators using a cell-based luciferase reporter assay. This system was based on three tandem copies of the antioxidant response element (ARE) derived from the NFE2L1 target gene proteasome subunit alpha type-4 (3xPSMA4, PSMA4-ARE-LUC). It was designed to detect the proteasome “bounce-back” response induced by proteasome inhibitors such as MG132 or bortezomib.[22,43,45,46] The reporter assay was adapted to a 384-well format and used to evaluate a new set of RUN compounds designed around the structural framework of the RUN-47 activator. We focused on identifying compounds that increased the 3×PSMA4-ARE-LUC signal (Fig. 1A), while simultaneously assessing cytotoxicity (see the SI, Fig. S2). […] In contrast, thiourea- and urea-containing derivatives generally produced only weak to intermediate responses, rarely exceeding a fold change of 7.
Fig. 1 (A) Targeted library screening of RUN compounds using the 3×PSMA4-ARE-LUC dual reporter assay in HEK293 cells. Cells were exposed to RUN compounds (5 μM) for 16 hours, and luciferase activity was measured. Data are presented as the mean ± SD from three independent experiments (n = 3). Results are shown as a fold change in luminescence relative to DMSO-treated cells. Selected hit compounds are highlighted in distinct colours. (B) RUN-89 specifically activates the NFE2L1 pathway. The DDI2 knockout (KO) and parental (WT) HCT116 cells were transfected with the 3×PSMA4-ARE-LUC reporter and treated with 0.5 μM bortezomib (BTZ) and 5 μM RUN-89 for 16 hours. Data are presented as the Geomean ± GeoSD of three independent experiments (n = 3). Statistical analysis was performed on log2-transformed values using two-way repeated-measures ANOVA followed by Šídak's multiple comparison test. (C) RUN-89 selectively triggers downstream signaling events associated with NFE2L1 gene expression. HEK293 cells were transfected with lipid nanoparticles (LNPs) carrying siRNAs targeting NFE2L1 or NFE2L2. LNPs formulated with non-targeting siRNA served as a negative control. Following 24 hours of incubation, cells were treated with 7.5 μM RUN-89 or DMSO (vehicle) for an additional 16 hours. Expression of the proteasomal subunit gene PSMC4 was then quantified by RT-qPCR. Data are shown as the Geomean ± GeoSD from three independent biological replicates (n = 3). Log2-transformed data were analyzed using two-way repeated-measures ANOVA with the Geisser–Greenhouse correction, followed by Tukey's multiple comparison test with individual variances computed for each comparison. Additional results for NFE2L1, NFE2L2, PSMB7, and PSMD12 are presented in SI Fig. S10.
Figure S1: Concentration–response of luciferase cell-based assay (PSMA4-ARE-luc2P reporter) on treatment with RUN-81, RUN-89, and RUN-94. Concentration is plotted on the X-axis. Dose–response relationships were analyzed using a four-parameter logistic curve (4PL), or a bell-shaped dose-response curve, both with weighting 1/Y^2. Dotted lines represent 95% confidence bands. Calculated EC₅₀ values, curve parameters, and asymmetrical confidence intervals are summarized in the accompanying table . Data are presented as mean ± SD from four independent experiments (n=4).
(§1) 2 Biology Experimental Procedures
(§2) Safety statement: No unexpected or unusually high safety hazards were encountered. […]
Most of the cell lines were cultured in Dulbecco's Modified Eagle Medium (DMEM) enriched with 10% fetal bovine serum (FBS) and 2 mM L-glutamine, under standard conditions of 37 °C with 5% CO₂. DNA transfection was performed with Lipofectamine 2000, following the manufacturer's instructions. Transgenic cells were then selected with either G418 (400 µg/mL) or hygromycin B (450 µg/mL), based on the selection marker encoded by the plasmid used. Cell viability was evaluated using the […]

HEK293 cells = experiment: alamarBlue cytotoxicity assessment in HEK293 cells; conditions: HEK293, alamarBlue, 16 h; concentration not given
Protocol: Figure S2: Concentration-dependent cytotoxicity assessment of RUN compounds.
HEK293 cells were treated for 16 hours with increasing concentrations of RUN compounds (1.25 µM; 2.5 µM; 5; 7.5 and 10 µM) or DMSO (negative control). Cell viability was determined using the alamarBlue assay following the protocol of Riss.(1) Data are presented as means ± SD from three independent experiments (n = 3). Statistical analysis was done using repeated measures one-way ANOVA with Geisser–Greenhouse correction, followed by Dunnett’s multiple comparisons test. *p<0.05. Detailed results of the analysis are shown in […]
(1 picture or pasted object on this page, not shown here)
as §1, §2
Cell lines were sourced from the ATCC (USA) and/or ECACC (UK), namely HCT116 (human colorectal carcinoma), ATCC CCL-247 (RRID:CVCL_0291), HEK-293 (human embryonic kidney), ATCC CRL-1573 (RRID:CVCL_0045), SH-SY5Y (human neuroblastoma), ATCC CRL-2266 (RRID:CVCL_0019). The characteristics of DDI2 knockout cells derived from HCT116 cells have been described previously (Sedlacek et al., 2025). All cell lines were tested for mycoplasma contamination. Most of the cell lines were cultured in Dulbecco's Modified Eagle Medium (DMEM) enriched with 10% fetal bovine serum (FBS) and 2 mM L-glutamine, under standard conditions of 37 °C with 5% CO₂. DNA transfection was performed with Lipofectamine 2000, following the manufacturer's instructions. Transgenic cells were then selected with either G418 (400 µg/mL) or hygromycin B (450 µg/mL), based on the selection marker encoded by the plasmid used. […]

SNCA-EGFP = SNCA-EGFP degradation in SH-SY5Y cells
Protocol: This reporter is prone to aggregation because of its slow protein turnover. To assess compound efficacy, we measured the fluorescence signal of GFP-tagged synuclein within aggregates.
The GFP fluorescence signal was then normalized to that of the DMSO control and the cell number. The experiment was performed in at least five biological replicates. Statistical analysis was performed using paired t-tests with Holm–Šídák correction for multiple comparisons (α = […]
SH-SY5Y cells stably expressing SNCA-EGFP were seeded on a plate and allowed to […]
tadalafil (5 µM), or RUN compounds at a concentration of 1 µM or treated with an equivalent volume of DMSO dissolved in buffer as a vehicle control. The treatment was performed for 16 hours and then fluorescence was measured. The GFP signal intensity was normalized to both the DMSO control and the cell count.

[1] = SH-SY5Y, SNCA-EGFP degron, Figure S7

CC(C)C[C@@H](C=O)NC(=O)[C@H](CC(C)C)NC(=O)[C@H](CC(C)C)NC(=O)OCc1ccccc1 [MG132] (Cbz-Leu-Leu-Leu-aldehyde)
Mean 2 (mean of log2-transformed values, treatment; DMSO = 0) (IRE1/XBP1s; 1 µM): 2.106
Mean 2 (mean of log2-transformed values, treatment; DMSO = 0) (IRE1/XBP1s; 5 µM): 2.725
Mean 2 (mean of log2-transformed values, treatment; DMSO = 0) (IRE1/XBP1s; 10 uM): 3.956
Mean diff, DMSO vs. treatment (log2-transformed values) (IRE1/XBP1s; DMSO vs. 1 µM): -2.106
Mean diff, DMSO vs. treatment (log2-transformed values) (IRE1/XBP1s; DMSO vs. 5 µM): -2.725
Mean diff, DMSO vs. treatment (log2-transformed values) (IRE1/XBP1s; DMSO vs. 10 uM): -3.956

COc1ccc(/C=C2\CN(C(=O)Cn3ccnc3)C/C(=C\c3ccc(OC)c(OC)c3)C2=O)cc1OC [RUN-111]
fold induction at 5 µM (NFE2L1 pathway): 2.7
Tox [% of ctrl.] (HEK293 cells): 78% of ctrl.

COc1ccc(/C=C2\CN(C(=O)CN3CCOCC3)C/C(=C\c3ccc(OC)c(OC)c3)C2=O)cc1OC.O=C(O)C(F)(F)F [RUN-112]
fold induction at 5 µM (NFE2L1 pathway): 6.6
Tox [% of ctrl.] (HEK293 cells): 81% of ctrl.

COc1ccc(/C=C2\CN(C(=O)C3CCCN3)C/C(=C\c3ccc(OC)c(OC)c3)C2=O)cc1OC (centres unmarked) [RUN-113]
fold induction at 5 µM (NFE2L1 pathway): 3.8
Tox [% of ctrl.] (HEK293 cells): 94% of ctrl.

COc1ccc(/C=C2\CN(C(=O)CCN(C)C)C/C(=C\c3ccc(OC)c(OC)c3)C2=O)cc1OC.O=C(O)C(F)(F)F [RUN-114]
fold induction at 5 µM (NFE2L1 pathway): 3.1
Tox [% of ctrl.] (HEK293 cells): 92% of ctrl.

COc1ccc(/C=C2\CN(C(=O)CCCN)C/C(=C\c3ccc(OC)c(OC)c3)C2=O)cc1OC [RUN-115]
fold induction at 5 µM (NFE2L1 pathway): 1.8
Tox [% of ctrl.] (HEK293 cells): 85% of ctrl.

CCN(CC)CC(=O)N1C/C(=C\c2ccc(OC)c(OC)c2)C(=O)/C(=C/c2ccc(OC)c(OC)c2)C1.O=C(O)C(F)(F)F [RUN-116]
fold induction at 5 µM (NFE2L1 pathway): 3.1
Tox [% of ctrl.] (HEK293 cells): 78% of ctrl.

COc1ccc(/C=C2\CN(C(=O)CCN)C/C(=C\c3ccc(OC)c(OC)c3)C2=O)cc1OC [RUN-117]
fold induction at 5 µM (NFE2L1 pathway): 1
Tox [% of ctrl.] (HEK293 cells): 83% of ctrl.

CN1CC(=O)N2[C@H](c3ccc4c(c3)OCO4)c3[nH]c4ccccc4c3C[C@@H]2C1=O [tadalafil, reference compound]
EGFP-SNCA aggregation (GFP signal) (SNCA-EGFP; SH-SY5Y SNCA-EGFP, 16 h, RUN compounds 1 μM, PD169316 3 μM, tadalafil 5 μM): reduction
Geometric mean of ratios (paired t tests, Treatment vs Control = 100) (SNCA-EGFP; [1]): -20.51
Geometric mean, Treatment (Control = 100) (SNCA-EGFP; [1]): 79.49

Reference: PMC12606464, “Investigating NFE2L1 activators for targeted protein aggregate clearance: a follow-up study” (RSC Medicinal Chemistry, 2025)
